# Experimental data taken from patent US4472428A, “Halogenated prostacyclins pharmaceutical use thereof and hydroxy intermediates therefore” (Teijin Limited, priority 1980, dated 1984).
# Where a name gives a salt, the structure may show the parent alone. Read-outs that look alike come from different tables or passages of the source.
# Legend:
# platelet aggregation [1] = experiment: in vitro inhibitory activity of platelet aggregation (ADP-induced, rabbit PRP); type: cell-based, rabbit (Japanese domestic white male); settings: for platelet aggregation inhibiting activity (in words): general statement; for IC50: Oryctolagus cuniculus, Platelet, rabbit PRP, 10 μM ADP, 37° C., read-out: IC50 (minimum concentration which inhibited more than 50% of platelet aggregation)
# Experimental: (1) in vitro inhibitory activity of platelet aggregation:
# The in vitro platelet aggregation inhibiting activities of the compounds of the invention were examined by using rabbits. Blood was withdrawn from the ear vein of Japanese domestic white male rabbits weighing 2.5 to 3.5 kg. A mixture of a 3.8% trisodium citrate solution and the blood in a ratio of 1:9 was centrifuged at a speed of 1000 rpm for 10 minutes. The upper layer was separated as platelet-rich plasma (PRP). The lower layer was further centrifuged at a speed of 2800 rpm for 10 minutes. The upper layer was separated as platelet-poor plasma (PPP). The number of platelets was adjusted to 6×10^5 /μl to 7×10^5 /μl by diluting the PRP with PPP. 25 microliters of the test compounds prepared as shown below was added in an amount of 25 to 250 microliters of PRP after the adjustment, and the mixture was pre-incubated at 37° C. for 2 minutes, and then 10 μM (final) of ADP was added. By using an aggregometer, changes in transmission were recorded.
# The drug was dissolved in ethanol to a concentration of 10 mg/ml. When its activity was measured, it was used after being diluted with phosphate buffer (pH 7.4). Furthermore, after dilution with the buffer, the drug was left to stand at 0° C. for 4 hours, and the activity of the drug was similarly measured.
# The rate of inhibition of platelet aggregation was determined from the following equation.
# Inhibition rate (%)=(1-T/To)×100
# To : the transmittance of the system containing the phosphate buffer,
# T: the transmittance of the system to which the test drug was added.
# The minimum concentration of the drug which inhibited more than 50% of platelet aggregation was shown as an IC50 value.
# blood pressure [2] = experiment: hypotensive activity, intravenous injection in anesthetized rats; type: in vivo, rats (male wister); settings: for blood pressure lowering activity (in words): general statement; for ED20: Rattus norvegicus, iv, anesthetized rats, read-out: P-ED20 (dosage causing a 20% lowering of the mean blood pressure)
# Experimental: (§1) Measurement of the hypotensive activity:
# (§2) The actions of the prostacyclin derivatives of the invention on the blood pressure and heart rate of rats were examined by intravenous injection under anesthesia.
# (§3) Male wister rats weighing about 250 g were used. Urethane (500 mg/kg) and α-chloralose (100 mg/kg) were intraperitoneally administered to the rats. The rats were anesthetized and fixed in place.
# (§4) Each of the test compounds was dissolved in a small amount of ethanol and diluted with 0.05M Tris buffer saline (pH 9) to adjust the final ethanol concentration to not more than 5%. The solution was intravenously injected into the rats through a catheter inserted into the femoral vein.
# (§5) The blood pressure of the rats was measured by a pressure transducer through a catheter inserted into the carotid artery of the rats. The heart rate was determined from the blood pressure pulse.
# (§6) The action of the test compound on the blood pressure was expressed as the dosage (P-ED20, μg/kg) of the test compound which caused a 20% lowering of the mean blood pressure before administration of the compound. The action of the test compound on the heart rate was expressed as the dosage (H-ED10, μg/kg) of the test compound which caused a 10% increase of the heart rate from the heart rate before administration of the test compound.
# [3] = chemical stability at pH 7.4 (half period from UV absorption at 210 nm); type: physicochemical; settings: pH 7.4 phosphate buffer, room temperature, UV 210 nm
# Experimental: Test for the chemical stability of (5E)-5-chloro-PGI2 sodium salt (No. 686) and (5Z)-5-chloro-PGI2 sodium salt (No. 5Z-686):
# 6.54 ml of 0.02M potassium dihydrogen phosphate and 29.0 ml of 0.01M disodium hydrogen phosphate were mixed, and the pH of the mixture was measured by a pH meter.
# The solution of (5E)-5-chloro-PGI2 sodium salt obtained in Example 35 and the solution of (5Z)-5-chloro-PGI2 sodium salt obtained in Example 36 were each added to the above buffer mixture, and their UV spectra were periodically recorded at room temperature. From the absorption values at 210 nm, the half periods of these salts were determined.
# heart rate = experiment: action on heart rate, intravenous injection in anesthetized rats; type: in vivo, rats (male wister); settings: Rattus norvegicus, i.v., read-out: H-ED10 (dosage causing a 10% increase of the heart rate)
# Experimental: as §1, §2, §3, §4, §5, §6
# [4] = system: blood pressure / platelet aggregation; experiment: ratio of the blood pressure lowering activity and the platelet aggregation inhibiting activity; parameters: species or system rats (blood pressure); rabbits (platelets); settings: for P-ED20 / platelet IC50: P-ED20 rats i.v., IC50 rabbit platelets in vitro; for selectivity of pharmacological activity (in words): compared with PGI2
# Experimental: (2) From the results obtained in Examples 100 and 101, the ratio of the blood pressure lowering activity and the platelet aggregation inhibiting activity was calculated. The result is shown in Table 3 together with the ratio obtained with PGI2.
# Lewis lung carcinoma = experiment: activity of inhibiting metastasis of a malignant tumor; type: in vivo, mice
# Experimental: Measurement of the activity of inhibiting metastasis of a malignant tumor:
# Mice were used as experimental animals. Lewis lung carcinoma (4×10^5 cells/100 μl) was transplanted into the foot pad of each mouse. For seven days from the 5th to the 11th day after the transplantation, the compound No. 686 of the invention was intraperitoneally administered to the mouse once a day. On the 12th day, the foot at the primary nest was cut off, and the weight of the cut foot (primary nest portion) was measured. On the 20th day after the transplantation, the number of nests which metastasized to the lungs was measured.
# platelet aggregation [5] = experiment: extra vivo inhibitory activity of platelet aggregation after intraduodenal administration; type: in vivo, SD strain rats; settings: for inhibition (%) (rate of platelet aggregation inhibition): 3 mg/kg i.d., blood drawn 30 min after administration, ADP, N 4
# Experimental: extra vivo inhibitory activity of platelet aggregation:
# The extra vivo platelet aggregation inhibitory activity of the prostacyclin derivatives of the invention were measured by using […]. The test compound of the invention in ethanol was diluted with 0.05M Tris buffer (pH 9.0) and as a control, only the 0.05M Tris buffer solution was used. These solutions were each intraduodenally administered in a dose of 1 ml/kg to SD strain rats weighing about 200 g which had been fasted for 16 hours. Thirty minutes after the administration, blood was drawn off from the aorta using trisodium citrate so that the ratio of the blood to 3.8% trisodium citrate was 9:1. The blood was centrifuged at a speed of 800 rpm for 10 minutes. The upper layer was separated as platelet-rich plasma (PRP). The lower layer was further centrifuged at a speed of 2800 rpm for 10 minutes. The upper layer was separated as platelet poor plasma (PPP). 250 microliters of the resulting PRP was taken into an aggregometer cuvette, and incubated at 37° C. for 2 minutes. Then, 25 microliters of a 1.25 μM ADP disodium solution adjusted by dissolving with 0.1M tris-HCl buffer (pH 8.0) was added. The aggregation curve was recorded for 3 minutes. The maximum degree of aggregation of platelets within this time period was read, and the rate of inhibition of platelet aggregation was calculated from the following equation.
# Rate of platelet aggregation inhibition (%)=(1-(TD /TC)×100
# TC : the transmittance of the control glroup (to which only the 0.05M Tris buffer solution was administered),
# TD : the transmittance of the drug administered group.
# blood pressure [6] = experiment: action on blood pressure, intraduodenal administration to conscious rats; type: in vivo, rats (male SD); settings: for mean blood pressure: N 4
# Experimental: The prostocyclin derivatives of the invention were intraduodenally administered to conscious rats, and their action on the blood pressure was examined.
# Male SD rats weighing about 200 g were used as experimental animals. These rats had been fasted for 16 hours before the start of the experiment. A catheter was inserted into the femoral artery of the rats under ether anesthesia, and then the rats were restrained within a Bollman cage. After more than 1 hour from awakening, each of the test compounds was intraduodenally administered.
# The test compound was dissolved in a small amount of ethanol, and then diluted with 0.05M Tris buffer (pH 9) to adjust the final concentration of ethanol to not more than 5%. The mean blood pressure was measured by meaans of a pressure transducer through the catheter inserted into the femoral artery.
# [7] = cited from earlier work
# [8] = system: 15-position dehydrogenase; settings: cited from earlier work
# [9] = system: platelet aggregation / blood pressure; settings: cited from earlier work
# [10] = 4 hr standing at 0° C. after dilution with phosphate buffer pH 7.4
# [11] = 10 μg/kg/day i.p., day 5 to 11, 5 animals
compound,measurement,setting,value
5-Chloro-PGI2 [Compound 500],platelet aggregation inhibiting activity (in words),platelet aggregation [1],high platelet aggregation inhibiting activity
same,blood pressure lowering activity (in words),blood pressure [2],low blood pressure lowering activity
"CCCCCC(O)C=CC1C(O)CC2OC(=C(Cl)CCCC(=O)O)CC21 (centres unmarked) [Compound 5Z-686, (5Z)-5-chloro-PGI2, sodium salt]",half period,[3],more than 1 month
"CCCCCC(O)C=CC1C(O)CC2OC(=CCCCC(=O)O)C(F)C21 (centres unmarked) [Compound 501, 7-Fluoro-PGI2]",platelet aggregation inhibiting activity (in words),platelet aggregation [1],high platelet aggregation inhibiting activity
same,blood pressure lowering activity (in words),blood pressure [2],low blood pressure lowering activity
"CCCCCC(O)C=CC1C(O)CC2OC(=C(Cl)CCCC(=O)OC)CC21 (centres unmarked) [Compound 636, (5E)-5-chloro-PGI2 methyl ester]",IC50,platelet aggregation [1]; 0 hr,0.62 µg/mL
same,IC50,platelet aggregation [1]; [10],0.51 µg/mL
"CCCCCC(O)C=CC1C(O)CC2OC(=CCCCC(=O)OC)C(F)C21 (centres unmarked) [Compound 637, 7-fluoro-PGI2 methyl ester]",IC50,platelet aggregation [1]; 0 hr,0.34 µg/mL
same,IC50,platelet aggregation [1]; [10],0.38 µg/mL
"CCCCCC(O)C=CC1C(O)CC2OC(=C(Cl)CCCC(=O)O)CC21 (centres unmarked) [Compound 686, (5E)-5-chloro-PGI2, sodium salt]",ED10,heart rate,> 10 µg/kg
same,P-ED20 / platelet IC50,[4],17.1
same,selectivity of pharmacological activity (in words),[4],higher selectivity of pharmacological activity than PGI2
same,Number of nests which metastasized to the lungs (measured on the 20th day),Lewis lung carcinoma; [11],25.6 ± 12.0
same,Weight of the primary next portion measured on the 12th day,Lewis lung carcinoma; [11],2.17 ± 0.86 g
same,metastasis of the primary nest to the lungs (in words),Lewis lung carcinoma; Table 6,inhibited metastasis of the primary nest to the lungs
same,primary nest (in words),Lewis lung carcinoma; Table 6,reduced the primary nest
same,IC50,platelet aggregation [1]; 0 hr,0.14 µg/mL
same,IC50,platelet aggregation [1]; [10],0.12 µg/mL
same,half-life,[3],~22 days
same,ED20,blood pressure [2],2.4 µg/kg
"CCCCCC(O)C=CC1C(O)CC2OC(=CCCCC(=O)O)C(F)C21 (centres unmarked) [Compound 688, sodium salt of 7-fluoro-PGI2]",ED10,heart rate,1.9 µg/kg
same,P-ED20 / platelet IC50,[4],14.0
same,selectivity of pharmacological activity (in words),[4],higher selectivity of pharmacological activity than PGI2
same,IC50,platelet aggregation [1]; 0 hr,0.05 µg/mL
same,IC50,platelet aggregation [1]; [10],0.05 µg/mL
same,inhibition (%) (rate of platelet aggregation inhibition),platelet aggregation [5],87.5 ± 5.8%
same,platelet aggregation inhibiting activity (in words),"platelet aggregation [5]; Table 5, 3 mg/kg i.d., rats",stronger platelet aggregating activity than the sodium salt of PGI2
same,ED20,blood pressure [2],0.7 µg/kg
same,mean blood pressure,"blood pressure [6]; 1 mg/kg i.d., 0 min",102 ± 4
same,mean blood pressure,"blood pressure [6]; 1 mg/kg i.d., 5 min",101 ± 4
same,mean blood pressure,"blood pressure [6]; 1 mg/kg i.d., 10 min",97 ± 3
same,mean blood pressure,"blood pressure [6]; 1 mg/kg i.d., 15 min",99 ± 4
same,mean blood pressure,"blood pressure [6]; 1 mg/kg i.d., 30 min",104 ± 3
same,mean blood pressure,"blood pressure [6]; 1 mg/kg i.d., 60 min",100 ± 4
same,mean blood pressure,"blood pressure [6]; 1 mg/kg i.d., 120 min",100 ± 2
same,mean blood pressure,"blood pressure [6]; 3 mg/kg i.d., 0 min",104 ± 2
same,mean blood pressure,"blood pressure [6]; 3 mg/kg i.d., 5 min",100 ± 3
same,mean blood pressure,"blood pressure [6]; 3 mg/kg i.d., 10 min",100 ± 3
same,mean blood pressure,"blood pressure [6]; 3 mg/kg i.d., 15 min",103 ± 2
same,mean blood pressure,"blood pressure [6]; 3 mg/kg i.d., 30 min",102 ± 3
same,mean blood pressure,"blood pressure [6]; 3 mg/kg i.d., 60 min",102 ± 2
same,mean blood pressure,"blood pressure [6]; 3 mg/kg i.d., 120 min",100 ± 2
"CCCCC[C@H](O)/C=C/[C@@H]1[C@H]2C/C(=C/CCCC(=O)O)O[C@H]2C[C@H]1O [PGI2, Prostaglandin I2, reference compound]",ED10,heart rate,0.04 µg/kg
same,P-ED20 / platelet IC50,[4],4.3
same,half period of its activity at physiological pH,[7],only about several minutes
same,IC50,platelet aggregation [1]; 0 hr,0.0047 µg/mL
same,IC50,platelet aggregation [1]; [10],0.56 µg/mL
same,metabolism in vivo,[8],rapidly metabolized by a 15-position dehydrogenase
same,doses required for platelet aggregation inhibiting action and antihypertensive action,[9],almost equal to each other
same,ED20,blood pressure [2],0.02 µg/kg
"CCCCCC(O)C=CC1C(O)CC2OC(=CCCCC(=O)O)CC21 (centres unmarked) [Sodium salt of PGI2, reference compound]",inhibition (%) (rate of platelet aggregation inhibition),platelet aggregation [5],56.5 ± 11.3%
same,mean blood pressure,"blood pressure [6]; 3 mg/kg i.d., 0 min",109 ± 1
same,mean blood pressure,"blood pressure [6]; 3 mg/kg i.d., 5 min",84 ± 3
same,mean blood pressure,"blood pressure [6]; 3 mg/kg i.d., 10 min",101 ± 4
same,mean blood pressure,"blood pressure [6]; 3 mg/kg i.d., 15 min",110 ± 2
same,mean blood pressure,"blood pressure [6]; 3 mg/kg i.d., 30 min",109 ± 1
same,mean blood pressure,"blood pressure [6]; 3 mg/kg i.d., 60 min",107 ± 2
same,mean blood pressure,"blood pressure [6]; 3 mg/kg i.d., 120 min",103 ± 2
same,blood pressure lowering activity (in words),"blood pressure [6]; Table 4, i.d., conscious rats",stronger blood pressure lowering activity than the compound No. 688 of the present invention (especially five minutes later)
